Values of other authors as cited in patent US10487097B2, “4,6-di-(O-thiophosphate)-inositol-1,2,3,5-tetra-O-sulfate for C. difficile infection” (priority 2015, dated 2019).

Settings: colon lumen, background statement

O=P(O)(O)O[C@H]1[C@H](OP(=O)(O)O)[C@@H](OP(=O)(O)O)[C@H](OP(=O)(O)O)[C@@H](OP(=O)(O)O)[C@H]1OP(=O)(O)O [IP6, inositol hexakisphosphate]
precipitation due to high calcium concentration: precipitates
